Assay results from patent US20120094939A1, “ANTI-VIRAL COMPOUNDS, COMPOSITIONS AND METHODS” (priority 2007, published 2012).
Read-outs that look alike come from different tables or passages of the source.

Legend:
[1] = tested on: OR6 cells harboring full-length genotype 1b HCV replicon ORN/C-5B/KE (HCV RNA replication); assay: microbe, parasite or virus in culture; type: cell-based, Hepatitis C virus (strain HCV—O; details: for antiviral activity (in words) / proviral effect on HCV replication (in words): OR6 full-length replicon; for proviral effect on HCV replication (in words): 0.1-100 μM
Excerpt: (§1) HCV Replicon System-Secondary Assays. For validation, OR6 cells stably harboring the full-length genotype 1 replicon, ORN/C-5B/KE9 were used to examine compound activity in a more authentic viral polyprotein context. This replicon was derived from the 1B-2 strain (strain HCV—O, genotype 1b), in which the Renilla luciferase gene is introduced as a fusion protein with neomycin to facilitate the monitoring of HCV replication. This construct contains a tissue culture adaptive mutation in the NS3 region. Cells were cultured in an identical manner to the Huh7/Rep-Feo cells.
Secondary Assays-Hit Validation. Several hits from primary HTS, as well as functionally related compounds, were purchased from Sigma (St. Louis, Mo.), Calbiochem (San Diego, Calif.), and Microsource (Gaylordsville, Conn.). […] Ten mM of stock solutions of the individual compounds to be tested was prepared in the appropriate solvent (DMSO, ethanol, or H2O, according to the manufacturer's information) and stored at −20° C. Cells were seeded into 96-well plates at a density of 2000 cells/well in 100 μL of medium. The cells were incubated for 24 hours at 37° C. to obtain the optimal level of adherence. Solutions of candidate hit compounds were added to wells to achieve final concentrations of 0.1, 1, 10, 50, and 100 μM. The final concentration of DMSO or ethanol in every well was 1% or less by volume. Mock solutions were used as a negative control. PEG-IFN and ribavirin were used as positive controls at various concentrations, alone and in combination. The plates were then incubated at 37° C. with 5% CO2 for 48 hours before they were analyzed. Luminescent signal was generated using the Renilla luciferase assay kit (Promega) according to the manufacturer's instructions. Signal was then detected using a LumiCount (Packard BioScience Company) luminometer. Cell viability was assessed using CellTiter-Glo (Promega), following the manufacturer's instructions. All experiments were performed in triplicate.
Secondary Assays-Data Analysis. Values were presented as a percentage of mock treated control, which was arbitrarily set at 100%. Data were expressed as the mean (±) SD. […] Synergy calculations were performed using CalcuSyn (Biosoft; Cambridge, England).
as §1, with “System—Secondary Assays:” for “System-Secondary Assays.”, “For replicon” for “For”, “ORN/C-5B/KE” for “ORN/C-5B/KE9”, “(Burke J. Am. Chem. Soc. (2004) 126:14095-14104).” for “to examine compound activity in a more authentic viral polyprotein context.”, “the Neomycin resistance cassette” for “neomycin”
Secondary Assays—Hit Validation: 10 mM of stock solutions of the individual compounds to be tested were prepared in DMSO and stored at −20° C. Cells were seeded into 96-well plates at a density of 2,000 cells/well in 100 μl of medium. The cells were incubated for 24 hours at 37° C. to obtain the optimal level of adherence. Solutions of candidate hit compounds were added to wells to achieve varying final concentrations between 0.01 and 100 μM. The final concentration of DMSO or ethanol in every well was 1% or less by volume. Mock solutions were used as a negative control. Peginterferon-alfa-2b (PEG-Intron; Schering Corp.; Kenilworth, N.J.) and ribavirin (Sigma; St. Louis, Mo.) were used as positive controls at various concentrations, alone and in combination. The plates were then incubated at 37° C. with 5% CO2 for 48 hours before they were analyzed. Luminescent signal was generated using the Renilla luciferase assay kit (Promega; Madison, Wis.) according to the manufacturer's instructions. Signal was then detected using a LumiCount™ (Packard BioScience Company; Downers Grove, Ill.) luminometer.

Huh7/Rep-Feo cells = assay: Primary HTS cell viability counter-screen (CellTiterGlo); type: cell-based, human; details: Table 2 antiviral hits of DOS set; approximately 10-50 μM, most at 33 μM; 48 hours
Experimental: (§2) Primary Screening-HTS. Information about the library of known bioactive compounds that was screened and the general automated HTS protocol is available at http://www.broad.harvard.edu/chembio/index.html (see FIG. 10 for list of primary HTS with known bioactives library). Based on the results of optimization experiments in the 384-well plate format, the general HTS protocol was adapted as follows. Unless otherwise indicated, cells were incubated at all times in a humidified environment with 5% CO2 at 37° C. The assay was initiated by plating 30 μL of medium containing 2000 cells/well into white 384-well opaque-bottom plates (Nunc, Rochester, N.Y.) using an automated plate filler (Bio-Tek uFiller; Winsooki, Vt.) and allowing the cells to adhere for 24 hours. One hundred nL of compound stock solutions in DMSO was transferred from stock plates into the 384-well assay plates using an automated pin-based compound transfer robot (CyBio CyBi-Well vario; Woburn, Mass.). The final compound concentration in each well was estimated to be approximately 10-50 μM, with most compounds at 33 μM. The wells contained 0.33% DMSO by volume. The cells were then incubated for another 48 hours. The luminescent signal from each plate was detected using an automated plate reader (Perkin-Elmer Envision 1; Wellesley, Mass.). This screen was performed in duplicate. For negative controls, entire DMSO-treated control plates were employed, in addition to DMSO-only control wells that were incorporated into each compound assay plate. The cells were assayed for luciferase activity using the Bright-Glo Luciferase assay system (Promega), following the manufacturer's instructions. As a counter-screen, cell viability was assessed using the CellTiterGlo Luminescent cell viability assay (Promega) following the manufacturer's instructions.
Computational Data Analysis-Primary Screening. For each replicate, a mock-treatment distribution based on the total population of mock (DMSO) controls in that replicate was built (FIG. 11). Each compound was independently assigned a sign (ie, “+” or “−”) Z-score. Z-scores are calculated by dividing each background-subtracted, compound-treated well by the global standard deviation. A global standard deviation of the background-subtracted, mock-treated wells is calculated over the entire experiment. This distribution was determined to be consistent with experimental noise observed under cell-based assay conditions. The resulting collection of continuousvalued Z-scores represents the primary data set to be used for further analysis. The composite Z-score was calculated as a vector projection of each Z-score in duplicate onto an imaginary line of perfect reproducibility. Reproducibility is the cosine of the angle between each Z-score and that imaginary line; it is dimensionless and ranges from −1 to +1. […] The primary data were analyzed using the commercial software packages Pipeline Pilot (SciTegic, San Diego, Calif.) and SpotFire (SpotFire, Inc., Somerville, Mass.). The means of the negative, DMSO-only controls were considered the zero point.
Primary Screening—HTS: Unless otherwise indicated, cells were incubated at all times in a humidified environment with 5% CO2 at 37° C. The assay was initiated by plating 30 μl of medium containing 2,000 cells/well into white 384-well opaque-bottom plates (Nunc; Rochester, N.Y.) using an automated plate filler (Bio-Tek μFiller; Winsooki, Vt.) and allowing the cells to adhere for 24 hours. 100 nl of compound stock solutions in DMSO were transferred from stock plates into the 384-well assay plates using an automated pin-based compound transfer robot (CyBio CyBi-Well vario; Woburn, Mass.). The final compound concentration in each well was estimated to be approximately 10-50 μM, with most compounds at 33 μM. The wells contained 0.33% DMSO by volume. The cells were then incubated for another 48 hours. […]

[2] = tested on: Huh7/Rep-Feo HCV replicon (HCV RNA replication); type: cell-based, Hepatitis C virus (strain HCV—N, genotype 1b); details: for R-CompZ, compositeZ score for reporter gene assay: Table 2 antiviral hits of DOS set, 48 hours
Excerpt: Development of the Huh7/Rep-Feo replicon assay. […] This replicon was derived from a chimpanzee infectious clone (strain HCV—N, genotype 1b). In this replicon, the structural genes have been replaced by a reporter gene. The chimeric reporter gene Feo encodes the firefly luciferase protein fused in-frame with neomycin phosphotransferase. This Huh7/Rep-Feo cell supports high levels of autonomous HCV RNA replication because it was derived from the HCV—N strain, which carries an adaptive mutation in NSSA that confers highlevel replication in tissue culture. Furthermore, the level of luciferase correlates well with levels of HCV RNA production, so that luciferase can be used as a reliable surrogate marker for HCV replication. The use of luciferase as a reporter permits quantitative and highthroughput detection of HCV replication levels. The specific use of firefly luciferase makes this replicon especially well-suited for automation, because the luciferase reagent can be added directly to the cell culture system prior to signal detection without the need for cell lysis, washing, or aspiration.
HCV Replicon System-Primary Screening. […] Briefly, this replicon harbors a subgenomic HCV genotype 1b sequence, fused to firefly luciferase, stably replicating under neomycin selection. Cells were propagated in Dulbecco's Modified Eagle's medium (DMEM) containing 10% fetal bovine serum (FBS) supplemented with 1% penicillin-streptomycin, and 500 μg of Geneticin (Invitrogen Corp., Carlsbad, Calif.)/mL. Cells were cultured in a 37° C., 5% CO2-humidified incubator for all experiments. To decrease day-today variability in the assay, a large homogenous population of subconfluent cells was passaged so that a similar lot of cells could be used throughout the HTS assay.
as §2
Computational Data Analysis-Primary Screening. For each replicate, a mock-treatment distribution based on the total population of mock (DMSO) controls in that replicate was built (FIG. 11).

[3] = approximately 10-50 μM, most at 33 μM
[4] = known bioactives library, approximately 10-50 μM, most at 33 μM

For `COc1ccc(CCN(C)CCCC(C#N)(c2ccc(OC)c(OC)c2)C(C)C)cc1OC` (stereo not shown) [verapamil], the “antiviral activity (in words)” value ([1]; 48 hours) was “did not exhibit antiviral activity”.
For `C[C@@]12COC[C@]13C=C(Br)C(C2)[C@@]1(CO1)C3=O` [SM_A7C2_2P155], the “C-CompZ, compositeZ score for cell viability assay” value (from here on “C-CompZ, compositeZ score”) (Huh7/Rep-Feo cells) was 0.6028 and the “R-CompZ, compositeZ score for reporter gene assay” value (“R-CompZ, compositeZ score” below) [2, 3] was −2.6813.
`C[C@]12C=CC(=O)C=C1CC[C@H]1[C@@H]3C[C@@H](O)[C@](O)(C(=O)CO)[C@@]3(C)C[C@H](O)[C@@]12F` [Triamcinolone, triamcinolone, reference compound] was tested, and the “proviral effect on HCV replication (in words)” value (“proviral effect” for short) ([1]; 48 hours) was “confirmed to increase HCV replication” and the “primary screen hit result (in words)” value [2] was “Proviral”.
With `C[C@H](O/N=C1/[C@H]2CCn3c(=O)n(-c4ccccc4)c(=O)n3[C@H]2[C@H](O)[C@@H]2O[C@H]12)c1cn([C@H](CO)Cc2ccccc2)nn1` [BUCMLD-B10A10] the “C-CompZ, compositeZ score” value (Huh7/Rep-Feo cells) was 1.9213 and the “R-CompZ, compositeZ score” value [2, 3] was −2.7028.
With `O=C1C2C=C(Br)C(CC2OCCCCCCO)[C@@]12CO2` (stereo partly shown) [SM_A1B2_1P32] the “C-CompZ, compositeZ score” value (Huh7/Rep-Feo cells) was 0.9925 and the “R-CompZ, compositeZ score” value [2, 3] was −3.252.
`Oc1ccc(-c2nc(-c3ccc(F)cc3)c(-c3ccncc3)[nH]2)cc1` [SB 202109, reference compound] was tested, and the “antiviral activity (in words)” value ([1]; 48 hours) was “inactive” and the “primary screen hit result (in words)” value [2, 4] was “inactive”.
For `CC(C)C1COc2cc3oc(=O)ccc3cc2O1` (stereo not shown) [dihydrobliquin, reference compound], the “primary screen hit result (in words)” value [2, 4] was “Proviral”.
`CC(C)c1c(C(=O)Nc2ccccc2)c(-c2ccccc2)c(-c2ccc(F)cc2)n1CC[C@@H](O)C[C@@H](O)CC(=O)O` [Atorvastatin, atorvastatin, reference compound] was tested, and the “antiviral activity (in words)” value ([1]; 48 hours) was “strong antiviral effects” and the “primary screen hit result (in words)” value [2] was “Antiviral”.
With `CC(C)NCC(O)COc1cccc2ccccc12` (stereo not shown) [propranolol, reference compound] the “primary screen hit result (in words)” value [2] was “Antiviral”.
In the case of `CC[C@H](C)C(=O)O[C@H]1C[C@@H](C)C=C2C=C[C@H](C)[C@H](CC[C@@H]3C[C@@H](O)CC(=O)O3)[C@H]21` [Lovastatin, lovastatin], the “antiviral activity (in words)” value ([1]; 48 hours) is reported as “weakly inhibitory”.
For `CC(C)(O)[C@@H]1Cc2cc3ccc(=O)oc3cc2O1` [marmesin, reference compound], the “primary screen hit result (in words)” value [2, 4] was “Proviral”.
For `O=C1C2C=C(I)C(CC2OCCCCO)[C@@]12CCCO2` (stereo partly shown) [SM_A12B3], the “antiviral activity (in words)” value ([1]; 48 hours) was “negligible antiviral activity”.
`NC(=O)c1ncn([C@@H]2O[C@H](CO)[C@@H](O)[C@H]2O)n1` [ribavirin] was tested, and the IC50 ([1]; Hepatitis C virus, OR6, 48 h, read-out: IC50 (HCV RNA replication, luciferase), OR6 full-length genotype 1b replicon, 48 hours) was 50 to 100 µM.
In the case of `CC1(C)C=Cc2cc3ccc(=O)oc3cc2O1` [xanthylentin, reference compound], the “primary screen hit result (in words)” value [2, 4] is reported as “Proviral”.
With `CC[C@H](C)C(=O)O[C@H]1C[C@H](O)C=C2C=C[C@H](C)[C@H](CC[C@@H](O)C[C@@H](O)CC(=O)O)[C@H]21` [Pravastatin, pravastatin] the inhibition at 100 µM ([1]; Hepatitis C virus, OR6, read-out: inhibition of HCV replication) was 30%.
`C[C@]12C=CC(=O)C=C1CC[C@@H]1[C@@H]2[C@@H](O)C[C@@]2(C)[C@H]1CC[C@]2(O)C(=O)CO` [prednisolone] was tested, and the “proviral effect” value ([1]; 48 hours) was “increased HCV replication”.
`CC(C)C[C@H](NC(=O)OCC1c2ccccc2-c2ccccc21)C(=O)O` [N-(9-fluorenylmethoxycarbonyl)-L-leucine, reference compound] was tested, and the “proviral effect” value ([1]; 48 hours) was “mild proviral activity”, the “primary screen hit result (in words)” value [2, 4] was “proviral hit” and the “primary screen hit result (in words)” value ([2]; known bioactives library, approximately 10-50 μM, most at 33 μM, listed as N-9-fluorenylmethoxycarbonyl-L-leucine) was “Proviral”.
